Test results reported in ChEMBL document CHEMBL1201862, “PubChem BioAssay data set” (2004).
Calls of active or inactive are those of the source.

Tests used:
Caspase-6 = biological target: T1, Caspase-6 (Homo sapiens, UniProt P55212); experiment: inhibition of CASP6 peptide cleavage – biochemical, VEID-R110 fluorescence, cherry-pick, dose response (AID 720632)
T1 sequence (P55212 whole entry): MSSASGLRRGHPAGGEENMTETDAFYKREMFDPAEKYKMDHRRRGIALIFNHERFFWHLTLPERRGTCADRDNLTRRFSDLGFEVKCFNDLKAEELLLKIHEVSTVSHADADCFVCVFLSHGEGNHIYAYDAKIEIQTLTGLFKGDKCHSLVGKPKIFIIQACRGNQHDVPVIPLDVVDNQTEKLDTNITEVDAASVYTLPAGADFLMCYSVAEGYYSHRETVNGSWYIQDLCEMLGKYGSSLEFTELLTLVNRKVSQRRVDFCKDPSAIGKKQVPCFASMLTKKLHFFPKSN

[1] = biological target: Induced myeloid leukemia cell differentiation protein Mcl-1 (Homo sapiens, UniProt Q07820); format: functional
Caspase-7 = Caspase-7 (Homo sapiens, UniProt P55210); experiment: caspase-7 enzyme inhibition, selectivity check – biochemical, DEVD-R110 fluorescence, cherry-pick, selectivity assay for caspase-6 inhibitor project, dose response (AID 743295); format: functional
[2] = biological target: T2, Carboxy-terminal domain RNA polymerase II polypeptide A small phosphatase 1 (Homo sapiens, UniProt Q9GZU7); experiment: CTDSP1 inhibitors, concentration-response, biochemical, absorbance readout, ultra-high-throughput screen actives (AID 540297); format: functional
T2 sequence (Q9GZU7 whole entry): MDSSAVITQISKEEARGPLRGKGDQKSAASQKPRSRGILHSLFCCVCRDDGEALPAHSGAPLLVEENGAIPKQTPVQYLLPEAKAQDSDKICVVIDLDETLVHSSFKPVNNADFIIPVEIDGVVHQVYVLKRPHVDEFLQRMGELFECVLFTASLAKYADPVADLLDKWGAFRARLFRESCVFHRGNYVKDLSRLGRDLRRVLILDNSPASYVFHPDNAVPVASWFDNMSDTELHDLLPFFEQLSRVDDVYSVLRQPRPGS

[3] = biological target: T3, Oxysterols receptor LXR-beta (Homo sapiens, UniProt P55055); format: functional, cell-based;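 further: Cell-based luminescence dose-response assay of agonist activity at LXR, run as a confirmatory counterscreen to a daf-12 agonist screen; HEK293 cells with Gal4-LXR fusion and GAL4-driven luciferase reporter; agonist potency from rising luciferase signal of a Gal4-LXR reporter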
T3 sequence (P55055 whole entry): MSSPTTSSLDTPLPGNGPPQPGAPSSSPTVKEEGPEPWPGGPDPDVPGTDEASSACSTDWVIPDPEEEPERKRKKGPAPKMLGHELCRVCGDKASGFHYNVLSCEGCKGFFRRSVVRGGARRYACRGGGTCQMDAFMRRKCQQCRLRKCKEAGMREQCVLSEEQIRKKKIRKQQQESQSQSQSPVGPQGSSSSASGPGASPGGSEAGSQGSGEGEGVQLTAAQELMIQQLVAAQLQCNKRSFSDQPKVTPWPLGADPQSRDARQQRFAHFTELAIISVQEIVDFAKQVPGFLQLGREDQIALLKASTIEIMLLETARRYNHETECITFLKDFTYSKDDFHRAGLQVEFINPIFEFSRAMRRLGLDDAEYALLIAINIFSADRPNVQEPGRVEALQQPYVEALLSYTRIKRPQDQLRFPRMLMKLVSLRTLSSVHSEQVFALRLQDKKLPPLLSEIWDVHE

[4] = Luminescence Cell-Based Dose Response HTS to Identify Activators of Luciferase Translation or Activity in H4 […] Cells. [Related pubchem assays: 1829 (Project Summary), 1814 (Primary HTS)]; format: functional
H4 = experiment: Luminescence Cell-Based Dose Response HTS to Identify Activators of 5'UTR Stem-Loop Driven Prion Protein mRNA Translation in H4 Neuroglioblastoma Cells. [Related pubchem assays: 1829 (Project Summary), 1814 (Primary HTS)]; format: functional; conditions: Homo sapiens
cells [5] = experiment: cells
Protein skinhead-1 = biological target: T4, Protein skinhead-1 (Caenorhabditis elegans, UniProt P34707); format: functional
T4 sequence (P34707 whole entry): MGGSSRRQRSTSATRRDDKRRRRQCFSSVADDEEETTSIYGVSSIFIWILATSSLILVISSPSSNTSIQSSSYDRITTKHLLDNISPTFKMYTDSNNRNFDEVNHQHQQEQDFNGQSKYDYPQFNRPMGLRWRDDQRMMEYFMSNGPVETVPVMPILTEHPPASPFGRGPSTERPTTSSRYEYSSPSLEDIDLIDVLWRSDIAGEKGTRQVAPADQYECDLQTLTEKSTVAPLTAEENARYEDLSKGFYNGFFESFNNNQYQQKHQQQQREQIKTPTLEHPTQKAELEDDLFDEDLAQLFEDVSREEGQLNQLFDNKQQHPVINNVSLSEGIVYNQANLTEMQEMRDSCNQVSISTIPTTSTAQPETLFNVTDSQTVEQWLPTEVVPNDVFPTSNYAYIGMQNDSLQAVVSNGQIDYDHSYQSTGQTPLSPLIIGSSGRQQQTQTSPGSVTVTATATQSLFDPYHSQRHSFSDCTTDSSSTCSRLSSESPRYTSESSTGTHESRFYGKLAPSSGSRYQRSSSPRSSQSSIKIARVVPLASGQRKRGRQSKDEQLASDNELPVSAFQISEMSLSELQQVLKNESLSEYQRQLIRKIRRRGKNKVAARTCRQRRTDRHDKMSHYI

[6] = biological target: Glucose-6-phosphate 1-dehydrogenase (Homo sapiens, UniProt P11413); experiment: inhibition of Homo sapiens G6PD, dose series – biochemical, fluorescence, selectivity assay for P. falciparum G6PD inhibitor project, dose response (AID 504792); format: functional
[7] = viability loss in HepG2 hepatoma cells – cell-based, ATP luminescence, cherry-pick, activator set 2, cytotoxicity control, dose response (AID 1053143); format: functional
[8] = biological target: Dual specificity tyrosine-phosphorylation-regulated kinase 1A (Rattus norvegicus, UniProt Q63470); format: biochemical, Homo sapiens
fMet-Leu-Phe receptor = fMet-Leu-Phe receptor (Homo sapiens, UniProt P21462); experiment: formyl peptide receptor binders – dose response (AID 519); format: functional
[9] = Luminescence Cell-Based Dose Confirmation HTS to Identify Inhibitors of Platelet Dense Granule Release. [Related pubchem assays: 1663 (Primary HTS), 1678 (Summary of Project)]; format: functional
[10] = biological target: Luciferin 4-monooxygenase (Photinus pyralis, UniProt P08659); experiment: inhibition of purified Photinus pyralis luciferase – biochemical, luminescence, dose response (AID 1891)
Cytochrome P450 2C9 = Cytochrome P450 2C9 (Homo sapiens, UniProt P11712)
Kallikrein-7 = Kallikrein-7 (Homo sapiens, UniProt P49862); experiment: Fluorescence Intensity-based biochemical primary high throughput dose response assay to identify activators of kallikrein-7 (K7) zymogen.
[11] = reduced cellular PGC1a acetyl-lysine signal – cell-based, cherry-picked samples, dose response (AID 720514); format: functional;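 further: potency may reflect raised or lowered acetylation signal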
[12] = OVCAR-3 cell viability loss – plate reader, dry powder samples, PAX8 inhibitor project, dose response (AID 743044); format: functional, cell-based
Paired box protein Pax-8 = Paired box protein Pax-8 (Homo sapiens, UniProt Q06710); experiment: PAX8 transcriptional activity inhibition in RMG-I – RMG-I cells, luciferase, cherry-pick, dose response (AID 687027); format: functional, cell-based;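 further: luciferase reporter driven by Pax8 target thyroperoxidase promoter measured by SteadyGlo luminescence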
[13] = activation of miR-122 Renilla sensor silencing – cell-based, Huh7 psiCHECK-miR122, Renilla luciferase, cherry-picked, dose response (AID 651956); format: functional;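 further: huh7 hepatoma cells stably carrying a psiCHECK-2 miR-122 sensor plasmid; renilla luciferase signal reporting endogenous miR-122 activity after 48 h compound exposure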
[14] = general mammalian cell viability loss – inhibitor set, cherry-pick, set 2, cytotoxicity control for miR-122 modulator project, dose response (AID 720697); format: functional, cell-based
[15] = Dd2 parasite growth inhibition in erythrocytes – SYBR Green, dry powder samples, set 9, dose response (AID 1159568); format: functional, cell-based
[16] = P. falciparum Dd2 growth inhibitors, dose response, SYBR Green, cherry-picked samples (AID 1159567); format: functional, cell-based
[17] = toxicity to human hepatoma HepG2 cells – cell-based, cherry-picked samples, cytotoxicity control, dose response (AID 1159577); format: functional
[18] = biological target: T5, Trace amine-associated receptor 1 (Homo sapiens, UniProt Q96RJ0); experiment: Counterscreen for agonists of the human trace amine associated receptor 1 (hTAAR1): Fluorescence-based cell-based high throughput dose response assay to identify hTAAR1 agonist that also desensitize TAAR1 receptor response.; format: functional
T5 sequence (Q96RJ0 whole entry): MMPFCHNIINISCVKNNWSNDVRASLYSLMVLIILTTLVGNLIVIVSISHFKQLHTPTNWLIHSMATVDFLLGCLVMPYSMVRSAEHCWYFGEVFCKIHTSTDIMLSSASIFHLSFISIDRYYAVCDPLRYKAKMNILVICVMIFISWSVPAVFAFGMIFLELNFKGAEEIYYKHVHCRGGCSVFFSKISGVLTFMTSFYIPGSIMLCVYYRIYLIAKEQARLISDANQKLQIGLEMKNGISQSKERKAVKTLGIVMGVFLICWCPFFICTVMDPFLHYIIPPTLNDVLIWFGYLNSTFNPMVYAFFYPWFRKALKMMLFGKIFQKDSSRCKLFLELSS

cells [19] = format: functional, cell-based
[20] = biological target: T5, Trace amine-associated receptor 1; experiment: Fluorescence-based cell-based high throughput dose response assay to identify agonists of the human trace amine associated receptor 1 (TAAR1).; format: functional
Mu-type opioid receptor = Mu-type opioid receptor (Homo sapiens, UniProt P35372); format: functional, cell-based;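 further: U2OS cells with beta-arrestin recruitment to OPRM1 by beta-gal complementation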
cells [21] = format: functional, cell-based; remark: listed apart in the source
[22] = biological target: 5-hydroxytryptamine receptor 2A (Mus musculus, UniProt P35363); format: functional, cell-based;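 further: CHO-K1 cells with tagged receptor and beta-arrestin; agonist potency measured as compound-induced activation of the receptor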
[23] = biological target: T6, RNA-binding protein pos-1 (Caenorhabditis elegans, UniProt G5EF15); experiment: disruptors of C. elegans POS-1 RNA interaction – biochemical, fluorescence polarization, dose response (AID 1964);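 further: purified POS-1 fused to maltose binding protein made in E. coli; potency of compounds blocking POS-1 binding to fluorescent RNA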
T6 sequence (G5EF15 whole entry): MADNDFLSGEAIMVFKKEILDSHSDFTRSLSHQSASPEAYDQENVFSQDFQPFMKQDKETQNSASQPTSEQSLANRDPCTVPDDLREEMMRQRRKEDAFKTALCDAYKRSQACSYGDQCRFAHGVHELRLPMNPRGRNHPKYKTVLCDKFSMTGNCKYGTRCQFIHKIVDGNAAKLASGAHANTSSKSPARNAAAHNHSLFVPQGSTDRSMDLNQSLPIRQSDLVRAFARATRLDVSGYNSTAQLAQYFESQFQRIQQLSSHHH

[24] = biological target: T7, Zinc finger protein mex-5 (Caenorhabditis elegans, UniProt Q9XUB2); experiment: potency of MEX-5 RNA-binding blockers – biochemical, C. elegans, fluorescence polarization, dose response (AID 1960)
T7 sequence (Q9XUB2 whole entry): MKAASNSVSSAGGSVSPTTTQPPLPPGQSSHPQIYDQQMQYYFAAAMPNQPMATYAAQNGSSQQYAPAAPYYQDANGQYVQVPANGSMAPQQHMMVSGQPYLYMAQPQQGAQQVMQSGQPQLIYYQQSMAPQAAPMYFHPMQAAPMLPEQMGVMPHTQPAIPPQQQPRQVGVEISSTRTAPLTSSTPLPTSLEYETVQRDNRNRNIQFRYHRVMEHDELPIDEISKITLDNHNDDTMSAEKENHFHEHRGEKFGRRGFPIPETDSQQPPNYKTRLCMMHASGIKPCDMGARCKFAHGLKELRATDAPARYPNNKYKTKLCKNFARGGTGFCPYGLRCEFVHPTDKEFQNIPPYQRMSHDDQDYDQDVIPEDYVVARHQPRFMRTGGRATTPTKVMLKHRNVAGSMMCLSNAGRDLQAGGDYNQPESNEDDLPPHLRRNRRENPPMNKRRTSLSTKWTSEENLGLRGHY

Kallikrein-7, sequence (P49862 whole entry): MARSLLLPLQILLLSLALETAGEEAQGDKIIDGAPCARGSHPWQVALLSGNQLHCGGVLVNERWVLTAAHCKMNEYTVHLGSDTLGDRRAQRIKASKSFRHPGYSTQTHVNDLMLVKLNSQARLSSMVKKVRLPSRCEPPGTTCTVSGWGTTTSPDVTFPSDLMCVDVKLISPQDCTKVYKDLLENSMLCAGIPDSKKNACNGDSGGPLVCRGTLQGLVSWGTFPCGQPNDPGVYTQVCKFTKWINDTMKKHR
fMet-Leu-Phe receptor, sequence (P21462 whole entry): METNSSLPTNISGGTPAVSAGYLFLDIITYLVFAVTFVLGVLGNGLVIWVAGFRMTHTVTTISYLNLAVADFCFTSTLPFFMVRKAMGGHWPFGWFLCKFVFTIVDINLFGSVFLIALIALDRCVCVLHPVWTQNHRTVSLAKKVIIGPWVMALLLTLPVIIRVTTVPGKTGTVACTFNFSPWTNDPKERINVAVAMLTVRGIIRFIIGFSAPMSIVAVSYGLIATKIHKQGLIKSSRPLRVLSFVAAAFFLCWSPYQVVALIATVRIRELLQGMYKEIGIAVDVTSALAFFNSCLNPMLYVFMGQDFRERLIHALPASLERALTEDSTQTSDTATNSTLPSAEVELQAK
Paired box protein Pax-8, sequence (Q06710 whole entry): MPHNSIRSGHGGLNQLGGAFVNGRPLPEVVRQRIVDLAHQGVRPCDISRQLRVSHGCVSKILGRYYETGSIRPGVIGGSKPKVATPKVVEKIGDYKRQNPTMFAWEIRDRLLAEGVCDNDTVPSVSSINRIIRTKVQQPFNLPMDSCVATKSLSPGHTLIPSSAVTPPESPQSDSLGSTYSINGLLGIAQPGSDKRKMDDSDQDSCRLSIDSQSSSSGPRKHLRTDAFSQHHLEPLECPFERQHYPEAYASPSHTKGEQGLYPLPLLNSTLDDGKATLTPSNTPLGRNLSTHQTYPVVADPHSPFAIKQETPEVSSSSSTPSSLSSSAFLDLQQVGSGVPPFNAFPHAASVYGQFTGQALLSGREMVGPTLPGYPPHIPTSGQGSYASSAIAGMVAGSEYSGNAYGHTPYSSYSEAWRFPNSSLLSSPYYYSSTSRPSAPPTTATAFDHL
Mu-type opioid receptor, sequence (P35372 whole entry): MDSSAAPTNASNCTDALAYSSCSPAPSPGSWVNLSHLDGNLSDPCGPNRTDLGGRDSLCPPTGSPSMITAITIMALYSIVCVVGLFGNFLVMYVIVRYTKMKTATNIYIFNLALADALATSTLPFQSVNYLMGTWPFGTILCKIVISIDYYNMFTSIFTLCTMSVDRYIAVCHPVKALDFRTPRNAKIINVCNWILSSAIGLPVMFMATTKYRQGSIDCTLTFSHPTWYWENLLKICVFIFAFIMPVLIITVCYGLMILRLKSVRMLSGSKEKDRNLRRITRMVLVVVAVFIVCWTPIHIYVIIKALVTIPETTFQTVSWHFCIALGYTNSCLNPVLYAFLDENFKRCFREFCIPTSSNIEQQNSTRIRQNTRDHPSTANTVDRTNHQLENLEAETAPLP
5-hydroxytryptamine receptor 2A, sequence (P35363 whole entry, the tested form may be a part): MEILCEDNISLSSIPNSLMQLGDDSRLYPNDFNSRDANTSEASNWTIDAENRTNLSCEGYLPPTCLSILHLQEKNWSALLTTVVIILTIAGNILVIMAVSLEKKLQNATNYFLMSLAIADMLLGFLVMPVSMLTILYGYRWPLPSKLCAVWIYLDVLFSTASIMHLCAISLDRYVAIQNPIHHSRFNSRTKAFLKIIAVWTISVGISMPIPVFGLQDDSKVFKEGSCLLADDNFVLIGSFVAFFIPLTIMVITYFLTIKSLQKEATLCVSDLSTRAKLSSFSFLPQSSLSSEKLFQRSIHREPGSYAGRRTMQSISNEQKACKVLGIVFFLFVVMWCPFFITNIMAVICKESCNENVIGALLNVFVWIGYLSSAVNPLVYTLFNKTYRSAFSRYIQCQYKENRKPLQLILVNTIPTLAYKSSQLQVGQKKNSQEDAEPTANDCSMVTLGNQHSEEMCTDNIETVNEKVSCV
Caspase-7, sequence (P55210 24-198 limits assumed): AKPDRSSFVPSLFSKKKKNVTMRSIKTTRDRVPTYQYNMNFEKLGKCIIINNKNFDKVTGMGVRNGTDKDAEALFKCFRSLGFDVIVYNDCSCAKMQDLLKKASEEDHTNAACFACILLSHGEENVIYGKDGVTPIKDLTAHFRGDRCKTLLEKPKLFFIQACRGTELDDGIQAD
Caspase-7, sequence (P55210 207-303 limits assumed): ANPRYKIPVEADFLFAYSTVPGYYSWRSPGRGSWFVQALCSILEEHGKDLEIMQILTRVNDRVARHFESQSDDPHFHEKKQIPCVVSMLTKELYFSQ
Cytochrome P450 2C9, sequence (P11712 whole entry): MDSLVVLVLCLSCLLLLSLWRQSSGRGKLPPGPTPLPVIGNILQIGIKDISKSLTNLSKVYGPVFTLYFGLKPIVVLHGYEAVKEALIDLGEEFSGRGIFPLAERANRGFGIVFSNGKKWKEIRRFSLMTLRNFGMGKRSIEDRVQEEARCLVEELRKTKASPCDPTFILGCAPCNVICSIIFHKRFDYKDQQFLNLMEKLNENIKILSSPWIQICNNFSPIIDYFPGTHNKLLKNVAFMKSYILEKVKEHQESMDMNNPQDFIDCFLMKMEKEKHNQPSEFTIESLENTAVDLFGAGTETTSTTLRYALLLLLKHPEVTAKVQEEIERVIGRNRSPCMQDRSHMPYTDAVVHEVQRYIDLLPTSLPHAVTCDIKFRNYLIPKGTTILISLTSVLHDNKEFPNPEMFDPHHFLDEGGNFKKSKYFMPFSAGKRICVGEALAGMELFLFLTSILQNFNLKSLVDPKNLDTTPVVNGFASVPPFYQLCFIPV
Luciferin 4-monooxygenase, sequence (P08659 whole entry): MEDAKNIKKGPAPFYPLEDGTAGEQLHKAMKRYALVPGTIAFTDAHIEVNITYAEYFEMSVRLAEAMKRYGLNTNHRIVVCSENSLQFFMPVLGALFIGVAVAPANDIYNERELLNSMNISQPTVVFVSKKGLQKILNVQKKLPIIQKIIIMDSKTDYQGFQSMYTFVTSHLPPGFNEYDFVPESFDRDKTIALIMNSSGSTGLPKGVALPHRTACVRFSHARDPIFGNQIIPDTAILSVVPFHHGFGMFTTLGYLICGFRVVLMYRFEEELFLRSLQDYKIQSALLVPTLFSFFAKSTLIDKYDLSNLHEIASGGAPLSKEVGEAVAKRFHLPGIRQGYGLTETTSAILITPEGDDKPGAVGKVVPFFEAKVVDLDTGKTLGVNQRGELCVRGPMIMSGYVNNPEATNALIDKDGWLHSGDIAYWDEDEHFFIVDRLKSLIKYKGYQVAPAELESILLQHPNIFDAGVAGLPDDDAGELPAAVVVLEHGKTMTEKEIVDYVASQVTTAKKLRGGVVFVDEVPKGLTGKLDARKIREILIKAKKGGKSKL
Glucose-6-phosphate 1-dehydrogenase, sequence (P11413 whole entry): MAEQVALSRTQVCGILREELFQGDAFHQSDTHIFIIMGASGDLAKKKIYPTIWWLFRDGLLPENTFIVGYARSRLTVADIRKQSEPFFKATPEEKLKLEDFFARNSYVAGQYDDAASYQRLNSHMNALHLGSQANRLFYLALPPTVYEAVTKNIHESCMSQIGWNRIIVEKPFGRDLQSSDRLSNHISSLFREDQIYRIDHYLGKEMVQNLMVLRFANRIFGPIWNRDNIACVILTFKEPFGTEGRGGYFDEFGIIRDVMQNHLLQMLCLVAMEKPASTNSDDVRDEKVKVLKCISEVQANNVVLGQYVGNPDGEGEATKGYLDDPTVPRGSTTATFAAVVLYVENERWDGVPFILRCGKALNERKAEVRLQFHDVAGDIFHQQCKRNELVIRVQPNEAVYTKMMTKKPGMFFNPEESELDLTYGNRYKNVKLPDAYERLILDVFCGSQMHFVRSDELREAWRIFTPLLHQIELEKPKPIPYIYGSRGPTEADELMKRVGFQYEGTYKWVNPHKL
Induced myeloid leukemia cell differentiation protein Mcl-1, sequence (Q07820 whole entry): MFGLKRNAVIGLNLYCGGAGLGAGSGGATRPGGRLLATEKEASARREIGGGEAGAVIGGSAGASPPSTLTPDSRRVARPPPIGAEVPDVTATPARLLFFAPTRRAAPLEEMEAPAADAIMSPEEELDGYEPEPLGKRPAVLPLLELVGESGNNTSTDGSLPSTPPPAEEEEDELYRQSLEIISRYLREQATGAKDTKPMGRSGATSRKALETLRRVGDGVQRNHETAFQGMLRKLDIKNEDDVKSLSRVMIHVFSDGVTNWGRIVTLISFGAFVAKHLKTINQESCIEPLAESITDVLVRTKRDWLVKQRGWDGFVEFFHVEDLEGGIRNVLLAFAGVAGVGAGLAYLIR

CCCSC1=N/C(=C\c2ccc([N+](=O)[O-])o2)C(=O)S1
AC50 (Caspase-6): 2.93 µM (active) | IC50 [1]: 3.88 µM (active) | AC50 (Caspase-7): 45.9 µM (active) | IC50 [2]: 4.92 µM (active)

Cc1nc(NC(=O)c2cccs2)ccc1Br
EC50 [3]: > 67.5 µM (inactive) | EC50 [4]: 13.2 µM (active) | EC50 (H4): 129 nM (active) | EC50 (cells [5]): > 67.5 µM (inactive) | IC50 (Protein skinhead-1): 24.4 µM (active)

CN1/C(=C\C(=O)c2cccs2)Sc2ccccc21
EC50 [3]: > 67.5 µM (inactive) | IC50 [6]: > 80 µM (inactive) | EC50 (cells [5]): > 67.5 µM (inactive)

O=[N+]([O-])c1ccccc1-c1cc(-c2ccccc2O)n[nH]1
AC50 [7]: 26 µM (active) | AC50 [8]: 7.59 µM (active)

COc1cccc(C(=O)C2=C(O)C(=O)N(Cc3cccnc3)C2c2ccco2)c1 (configuration not stated)
Ki (fMet-Leu-Phe receptor): > 66.7 µM (inactive)

CCOC(=O)c1sc(NC(=O)c2sccc2C)cc1C
AC50 [7]: 12.8 µM (active) | EC50 [9]: 3.04 µM (active) | EC50 [10]: 409 nM (active)

COc1ccc(-c2c(C)oc3c(CN4CCN(CCO)CC4)c(O)ccc3c2=O)cc1OC
AC50 (Cytochrome P450 2C9): 447 nM (inconclusive) | Ki (fMet-Leu-Phe receptor): > 66.7 µM (inactive)

CN(C(=O)c1cc2c(=O)n3ccccc3nc2s1)C1CCCCC1
EC50 (Kallikrein-7): 24.8 µM (inactive)

COc1ccc(C#Cc2ccc([C@H]3[C@@H](CO)N4CCCCN(C(=O)Nc5ccccc5)C[C@H]34)cc2)cc1
AC50 [11]: 16.4 µM (active) | AC50 [12]: 30.4 µM (active) | AC50 (Paired box protein Pax-8): 12.5 µM (active) | AC50 [13]: 6.04 µM (active) | AC50 [14]: 7.88 µM (active)

COc1cccc(S(=O)(=O)N2CCCCN3[C@@H](CO)[C@@H](c4ccc(C#CCC(C)C)cc4)[C@@H]3C2)c1
AC50 [15]: 1.48 µM (active) | AC50 [16]: 991 nM (active) | AC50 [12]: 43.3 µM (active) | AC50 (Paired box protein Pax-8): 14.6 µM (active) | AC50 [17]: 11.8 µM (active)

O=S(=O)(Cc1ccccc1)N1CCCCN2[C@@H](CO)[C@H](c3ccc(C#Cc4ccccc4)cc3)[C@@H]2C1
AC50 [16]: 4250 nM (active) | AC50 [17]: 8.93 µM (active)

CN1C[C@H](CO)C=C2c3cccc4[nH]cc(c34)C[C@H]21
IC50 [18]: 4.58 µM (active) | EC50 (cells [19]): > 29.9 µM (inactive) | EC50 [20]: 7.63 µM (active) | EC50 (Mu-type opioid receptor): 92.5 µM (inactive) | IC50 (cells [21]): > 29.9 µM (inactive) | EC50 [22]: 18 nM (active) | EC50 (Kallikrein-7): > 7.72 µM (active) | EC50 [23]: 20.6 µM (active) | EC50 [24]: 53.2 µM (inconclusive)
